Test results published in the NIST ThermoML archive (doi:10.1016/j.fluid.2015.12.032).
Numbers after ± are expanded uncertainties.

Details: 101.33 kPa, Liquid, Falling or rolling sphere viscometry

CCCC[N+]1(C)CCOCC1.N#C[C-](C#N)C#N [4-butyl-4-methylmorpholinium tricyanomethanide]
Details | viscosity [mPa·s]
288.15 K | 500.4 ± 47
298.15 K | 225.5 ± 17
308.15 K | 118.4 ± 8
318.15 K | 69.89 ± 4.4
328.15 K | 44.14 ± 2.8
338.15 K | 30.31 ± 1.9
348.15 K | 21.9 ± 1.4
358.15 K | 16.33 ± 1
368.15 K | 12.77 ± 0.79
